#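 Briefly, cells in 96-well plates were exposed to five compound concentrations for 48 h, and endpoints were estimated by linear interpolation. Abbreviation: GI50, concentration required for 50% inhibition of growth. TGI denotes the concentration required for complete inhibition of growth.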
# System: PC-3 prostate
# Test: NCI anticancer screen, dose series, 48 h
Compound,GI50 [µM],TGI [µM]
COc1cc2c(c(OC)c1OC)C(=O)[C@@H]1c3ccc([N+](=O)[O-])cc3C(=O)N(CCCBr)[C@H]21,13.1,55.6
COc1ncc(-c2ccc3ncnc(Nc4cccc(Cl)c4)c3c2)cc1NS(=O)(=O)CCN1CCOCC1,0.326,> 100
COc1ccc2nc3cc(Cl)ccc3c(NCCN)c2c1,1.72,3.38
CCC(=O)c1c(C(F)(F)F)n([O-])c2ccc(C)cc2[n+]1=O,2.27,15.1
COc1ccc(C2SCC(=O)N2NC(=O)Nc2c(C)nc3ccccn23)cc1 (stereo not drawn),77.2,> 100

# System: LOX IMVI melanoma
# Test: NCI anticancer screen, dose series, 48 h
Compound,TGI,GI50
COc1ccc(/C(Cl)=C(\C=O)c2ccc([N+](=O)[O-])cc2)cc1,> 48.1 µM,–
Cc1ccc(-c2cc(=O)c3cc(C)c(C)c(C(=O)O)c3o2)cc1C,> 100 µM,–
O=C(/C=C/c1c(O)ccc2ccccc12)c1ccccc1,44.9 µM,–
Cc1nc2ccccc2c(=O)n1-c1ccccc1F,> 100 µM,–
C=C[C@H]1C[C@@H]2C[C@@H]3[C@H]4C/C=C\C(=O)NCCCC5NC(=O)C(=C(O)/C=C/[C@@H]4CC(=O)[C@H]3[C@@H]2[C@H]1C)C5=O (stereo partly drawn),0.368 µM,0.187 µM
Fc1ccc(C2SCc3nc4ccccc4n32)cc1Cl (stereo not drawn),40.3 µM,–
C=C1CC[C@@H]2[C@](C)(COC(C)=O)[C@H](OC(C)=O)CC[C@@]2(C)[C@@H]1CC(Nc1ccc(S(=O)(=O)Nc2ncccn2)cc1)C1=CCOC1=O (stereo partly drawn),2.21 µM,0.891 µM
Cn1c2ccccc2c2c3[nH]c(=O)[nH]c(=O)c3c3c4ccccc4n(C)c3c21,11.9 µM,2.13 µM
CO[C@H]1C=C[C@@]23c4cc5c(cc4CO[C@]2(O)CN(C)[C@H]3C1)OCO5,> 100 µM,–
CC(C)N1CN(C(C(=O)N[C@@H]2C(=O)N3C2SC(C)(C)C3C(=O)O)c2ccccc2)CSC1=S (stereo partly drawn),> 100 µM,–
CC(C)c1cc2c(O)c(c1)Cc1cc(C(C)C)cc(c1O)Cc1cc(C(C)C)cc(c1O)Cc1cc(C(C)C)cc(c1O)C2,> 100 µM,–
COc1ccc(/C=C\c2cc(OC)c(OC)c(OC)c2)cc1OC(=O)NCCN(C)C,> 100 µM,–
CCCCOC(=O)NC(=O)c1cn(C2CCCCC2)c(=O)[nH]c1=O,> 100 µM,–
CC(C)CCCC(=O)CCCCCCC(=O)CCN(O)C(=O)C(N)CO (stereo not drawn),30.9 µM,–
Cc1ccc(NC(=O)NCCCOc2ccc(N3C(N)=NC(N)=NC3(C)C)cc2Cl)cc1S(=O)(=O)F,> 100 µM,4.19 µM
CC[CH2][Sn]([Cl])([Cl])[CH2]CC.Oc1ccccc1C=NCCN=Cc1ccccc1O,28 µM,14.4 µM

Compound,TGI,GI50
CCOC(=O)CCn1[nH]c(=O)c(Cl)c(Cl)c1=O,> 100 µM,–
COc1cc2c(c(OC)c1OC)C(=O)[C@@H]1c3ccc([N+](=O)[O-])cc3C(=O)N(CCCBr)[C@H]21,> 100 µM,19.5 µM
COc1ccc(CNc2nc3cc(C(F)(F)F)ccc3nc2C)cc1OC,68.7 µM,–
C/C=C1/C(=C/c2[nH]c(/C=c3\[nH]/c(=C/C4=NC(=O)C(CC)=C4C)c(C)c3CCC(=O)O)c(CCC(=O)O)c2C)NC(=O)C1C (stereo not drawn),> 150 µg/mL,> 150 µg/mL
COc1cccc(/C=C2\C(=O)N(C(=O)c3ccc(NC(C)=O)cc3)N=C2C)c1,> 100 µM,–
N#CCc1ccc(C(C#N)/C(CCCC(=O)Nc2cccc([N+](=O)[O-])c2)=N/NC(N)=S)cc1 (stereo not drawn),> 100 µM,–
CC(C)c1ccc(C(c2ccc(OCC(=O)O)cc2)c2ccc(C(C)C)cc(=O)c2O)c(O)c(=O)c1,14.8 µM,–
N#C/C(=C\c1cc2ccccc2c2ccccc12)c1ccccc1,> 100 µM,–
CCOc1ccc2c(c1)[n+]([O-])c(-c1nc3ccccc3s1)c(N)[n+]2[O-],> 100 µM,–
COc1ccc2c3c(coc13)C(CCC(=O)O)CC2 (stereo not drawn),> 100 µM,–
c1cc[c]([Pb]([c]2ccccc2)[c]2ccccc2)cc1,–,3.24 µM
CC(=O)N1C/C(=C\c2ccc(N(C)C)cc2)C(=O)/C(=C/c2ccc(N(C)C)cc2)C1,> 100 µM,–
CCC(=O)c1c(C(F)(F)F)n([O-])c2ccc(C)cc2[n+]1=O,17.9 µM,7.47 µM
COc1ccc(C2SCC(=O)N2NC(=O)Nc2c(C)nc3ccccn23)cc1 (stereo not drawn),> 100 µM,27.1 µM
COC1=CC2(C=CC1=O)c1cc(OC)c(OC)cc1CCN2C(=O)c1ccccc1 (stereo not drawn),> 100 µM,–
Cc1[nH]c2ccccc2c1C1Cc2ccccc2N1C(=O)/C(Cl)=C/c1ccccc1 (stereo not drawn),> 100 µM,–

# System: SW-620 colon
# Test: NCI anticancer screen, dose series, 48 h
Compound,TGI,GI50
COc1ccc(/C(Cl)=C(\C=O)c2ccc([N+](=O)[O-])cc2)cc1,> 49.1 µM,–
Cc1ccc(-c2cc(=O)c3cc(C)c(C)c(C(=O)O)c3o2)cc1C,> 100 µM,–
O=C(/C=C/c1c(O)ccc2ccccc12)c1ccccc1,83.7 µM,–
Cc1nc2ccccc2c(=O)n1-c1ccccc1F,> 100 µM,–
C=C[C@H]1C[C@@H]2C[C@@H]3[C@H]4C/C=C\C(=O)NCCCC5NC(=O)C(=C(O)/C=C/[C@@H]4CC(=O)[C@H]3[C@@H]2[C@H]1C)C5=O (stereo partly drawn),3.13 µM,1.66 µM
Fc1ccc(C2SCc3nc4ccccc4n32)cc1Cl (stereo not drawn),> 100 µM,–
C=C1CC[C@@H]2[C@](C)(COC(C)=O)[C@H](OC(C)=O)CC[C@@]2(C)[C@@H]1CC(Nc1ccc(S(=O)(=O)Nc2ncccn2)cc1)C1=CCOC1=O (stereo partly drawn),2.25 µM,0.864 µM
CC1=N/C(=C\c2cccc([N+](=O)[O-])c2)C(=O)O1,> 100 µM,–
Cn1c2ccccc2c2c3[nH]c(=O)[nH]c(=O)c3c3c4ccccc4n(C)c3c21,> 100 µM,2.67 µM
CO[C@H]1C=C[C@@]23c4cc5c(cc4CO[C@]2(O)CN(C)[C@H]3C1)OCO5,> 100 µM,–
COC(=O)c1c(C)[nH]c(/C=C2\N=C(c3ccc[nH]3)C=C2OC)c1C,–,0.0365 µM
CC(C)c1cc2c(O)c(c1)Cc1cc(C(C)C)cc(c1O)Cc1cc(C(C)C)cc(c1O)Cc1cc(C(C)C)cc(c1O)C2,> 100 µM,–
CCCCOC(=O)NC(=O)c1cn(C2CCCCC2)c(=O)[nH]c1=O,> 100 µM,–
CC(C)CCCC(=O)CCCCCCC(=O)CCN(O)C(=O)C(N)CO (stereo not drawn),> 100 µM,–
Cc1ccc(NC(=O)NCCCOc2ccc(N3C(N)=NC(N)=NC3(C)C)cc2Cl)cc1S(=O)(=O)F,> 100 µM,2.03 µM
CC[CH2][Sn]([Cl])([Cl])[CH2]CC.Oc1ccccc1C=NCCN=Cc1ccccc1O,3.82 µM,1.8 µM
COc1cc2c(c(OC)c1)C1(CC(CC#N)C2)SCCS1 (stereo not drawn),> 100 µM,–
CCOC(=O)CCn1[nH]c(=O)c(Cl)c(Cl)c1=O,> 100 µM,–

Compound,TGI,GI50
COc1cc2c(c(OC)c1OC)C(=O)[C@@H]1c3ccc([N+](=O)[O-])cc3C(=O)N(CCCBr)[C@H]21,> 100 µM,20 µM
COc1ccc(CNc2nc3cc(C(F)(F)F)ccc3nc2C)cc1OC,> 100 µM,–
C/C=C1/C(=C/c2[nH]c(/C=c3\[nH]/c(=C/C4=NC(=O)C(CC)=C4C)c(C)c3CCC(=O)O)c(CCC(=O)O)c2C)NC(=O)C1C (stereo not drawn),> 150 µg/mL,> 150 µg/mL
COc1cccc(/C=C2\C(=O)N(C(=O)c3ccc(NC(C)=O)cc3)N=C2C)c1,> 100 µM,–
N#CCc1ccc(C(C#N)/C(CCCC(=O)Nc2cccc([N+](=O)[O-])c2)=N/NC(N)=S)cc1 (stereo not drawn),> 100 µM,–
COC(C(O)c1ccc2c(c1)OCO2)P(=O)(c1ccccc1)c1ccccc1 (stereo not drawn),> 100 µM,–
CC(C)c1ccc(C(c2ccc(OCC(=O)O)cc2)c2ccc(C(C)C)cc(=O)c2O)c(O)c(=O)c1,> 100 µM,–
N#C/C(=C\c1cc2ccccc2c2ccccc12)c1ccccc1,24.9 µM,–
CCOc1ccc2c(c1)[n+]([O-])c(-c1nc3ccccc3s1)c(N)[n+]2[O-],> 100 µM,–
COc1ccc2c3c(coc13)C(CCC(=O)O)CC2 (stereo not drawn),> 100 µM,–
COc1ncc(-c2ccc3ncnc(Nc4cccc(Cl)c4)c3c2)cc1NS(=O)(=O)CCN1CCOCC1,> 100 µM,1.25 µM
c1cc[c]([Pb]([c]2ccccc2)[c]2ccccc2)cc1,57.1 µM,21.2 µM
COc1ccc2nc3cc(Cl)ccc3c(NCCN)c2c1,3.25 µM,1.45 µM
CC(=O)N1C/C(=C\c2ccc(N(C)C)cc2)C(=O)/C(=C/c2ccc(N(C)C)cc2)C1,> 100 µM,–
CCC(=O)c1c(C(F)(F)F)n([O-])c2ccc(C)cc2[n+]1=O,> 50 µM,11.7 µM
COc1ccc(C2SCC(=O)N2NC(=O)Nc2c(C)nc3ccccn23)cc1 (stereo not drawn),> 100 µM,> 100 µM
COC1=CC2(C=CC1=O)c1cc(OC)c(OC)cc1CCN2C(=O)c1ccccc1 (stereo not drawn),> 100 µM,–
Cc1[nH]c2ccccc2c1C1Cc2ccccc2N1C(=O)/C(Cl)=C/c1ccccc1 (stereo not drawn),> 100 µM,–

# System: MALME-3M melanoma
# Test: NCI anticancer screen, dose series, 48 h
row,Compound,TGI [µM]
1,COc1ccc(/C(Cl)=C(\C=O)c2ccc([N+](=O)[O-])cc2)cc1,68.1
2,Cc1ccc(-c2cc(=O)c3cc(C)c(C)c(C(=O)O)c3o2)cc1C,> 100
3,O=C(/C=C/c1c(O)ccc2ccccc12)c1ccccc1,> 100
4,Cc1nc2ccccc2c(=O)n1-c1ccccc1F,> 100
